≈ marks a conversion by molar mass, not a printed value. Read-outs that look alike come from different tables or passages of the source.

The values that follow come from patent US11319279B2, “Antimicrobial compound and use thereof” (priority 2014, dated 2022).

Test [1] concerns Pseudomonas aeruginosa KTCT 2004. The test can be described thus: MIC by broth microdilution. Particulars: KCTC2004, 20 h. Background: Dilution methods test growth across graded concentrations, often in twofold steps.
Description: (§1) A test microorganism was cultured in Mueller Hinton broth (MHB) and the antimicrobial activity was measured by the broth microdilution method. […] The compound was diluted in dimethylsulfoxide (DMSO) and the experiment was performed by adjusting the DMSO concentration to a 1/100 level. After culturing for 20 hours, the OD value was measured at 650 nm and the growth of the microorganism was examined.
Test [2] has as its system Klebsiella pneumoniae KCTC 22057. The test can be described thus: MIC by broth microdilution. Type of test: cell-based. Particulars: KCTC22057, MHB, 20 hours.
Test [3] relates to E. coli CCARM 1356. The test can be described thus: MIC by broth microdilution. Particulars: for MIC: Escherichia coli, CCARM1356, E. coli CCARM 1356, MHB, 20 hours. Type of test: cell-based, Escherichia coli.
In test [4] the test system is MRSA CCARM 3167. The test can be described thus: MIC by broth microdilution. In kind it is cell-based, methicillin-resistant Staphylococcus aureus. Particulars: for MIC: Staphylococcus aureus, MRSA CCARM 3167, MHB, 20 hours.
The subject of test [5] is E. coli KTCT 1682. The test can be described thus: MIC by broth microdilution. Type of test: cell-based. Particulars: Escherichia coli, KCTC1682; E. coli KTCT 1682 (KCTC 1682 in Table 4); MHB, 20 hours.
Test [6] has as its system Streptococcus pneumoniae KTCT 5412. The test can be described thus: MIC by broth microdilution. Particulars: KCTC5412, 20 h.
Description: as §1
Test [7] deals with Enterococcus faecalis KTCT 5191. The test can be described thus: MIC by broth microdilution. Particulars: for MIC: Enterococcus faecalis, KCTC5191, 20 h.
Description: as §1
For test [8], the system named is Staphylococcus epidermidis KTCT 3958. The test can be described thus: MIC by broth microdilution. Type of test: cell-based.
Test [9] deals with VISA. The test can be described thus: Antimicrobial activity against VISA. In kind it is cell-based, vancomycin intermediate-resistant S. aureus. Particulars: statement in words, refers to Example 5.
Test [10] deals with MRSA CCARM 3506. The test can be described thus: MIC by broth microdilution. Type of test: cell-based, methicillin-resistant Staphylococcus aureus. Particulars: Staphylococcus aureus, MHB, 20 hours.
Test [11] concerns QRSA CCARM 3505. The test can be described thus: MIC by broth microdilution. Type of test: cell-based, quinolone-resistant Staphylococcus aureus. Particulars: Staphylococcus aureus, CCARM3505, MHB, 20 hours.
The subject of test [12] is Acinetobacter calcoaceticus KTCT 2357. The test can be described thus: MIC by broth microdilution. Type of test: cell-based.
In test [13] the test system is QRSA CCARM 3519. The test can be described thus: MIC by broth microdilution. In kind it is cell-based, quinolone-resistant Staphylococcus aureus. Particulars: Staphylococcus aureus, CCARM3519, MHB, 20 hours.
Test [14] deals with VRE. The test can be described thus: Antimicrobial activity against VRE. Particulars: statement in words, refers to Example 5. Type of test: cell-based, vancomycin resistant enterococcus.
In test [15] the test system is Klebsiella aerogenes and Pseudomonas aeruginosa. The test can be described thus: MIC by broth microdilution, summary over Klebsiella and Pseudomonas strains. In kind it is cell-based. Particulars: range over strains of Table 2.
Test [16] deals with Acinetobacter baumannii KCTC 2508. The test can be described thus: MIC by broth microdilution. Type of test: cell-based. Particulars: KCTC2508, MHB, 20 hours.
Test [17] relates to Salmonella typhimurium KTCT 1926. The test can be described thus: MIC by broth microdilution. In kind it is cell-based. Particulars: Salmonella enterica, MHB, 20 hours.
In test [18] the test system is Bacillus subtilis KCTC 1021. The test can be described thus: MIC by broth microdilution. Type of test: cell-based. Particulars: KCTC1021, MHB, 20 hours.
Test [19] relates to Staphylococcus aureus RN 4220. The test can be described thus: MIC by broth microdilution. In kind it is cell-based. Particulars: RN4220, 20 h.
Test [20] deals with S. aureus. The test can be described thus: MIC by broth microdilution, summary over S. aureus strains. In kind it is cell-based. Particulars: Staphylococcus aureus; range over S. aureus strains of Table 2.
The test system of test [21] is MRSA (CCARM3167, CCARM3506) and QRSA (CCARM 3505, CCARM 3519). The test can be described thus: MIC by broth microdilution, summary over MRSA and QRSA strains. Particulars: Staphylococcus aureus; range over MRSA CCARM3167, CCARM3506 and QRSA CCARM 3505, CCARM 3519; read-out: MICs in MRSA and QRSA. Type of test: cell-based.
In test [22] the test system is Staphylococcus aureus 503. The test can be described thus: MIC by broth microdilution. Particulars: MHB, 20 hours. Type of test: cell-based.
The test system of test [23] is Pseudomonas aeruginosa KTCT 2742. The test can be described thus: MIC by broth microdilution. Type of test: cell-based.
Test [24] has as its system Enterococcus faecalis KTCT 3511. The test can be described thus: MIC by broth microdilution. In kind it is cell-based.
Test [25] has as its system Klebsiella aerogenes KTCT 2619. The test can be described thus: MIC by broth microdilution. Type of test: cell-based. Particulars: KTCT2619, MHB, 20 hours.
Test [26] deals with Staphylococcus aureus 209. The test can be described thus: MIC by broth microdilution. Particulars: MHB, 20 hours. In kind it is cell-based.
For test [27], the system named is Escherichia coli. The test can be described thus: MIC by broth microdilution, summary over E. coli strains. Type of test: cell-based. Particulars: range over E. coli strains of Table 2.
Test [28] relates to Bacillus subtilis KTCT 1661. The test can be described thus: MIC by broth microdilution. In kind it is cell-based.

Regarding `O=C(O)c1cn(C2CC2)c2cc(N3CCNCC3)c(F)cc2c1=O` [Ciprofloxacin, reference compound], the MIC in test [1] came out at 0.06 µg/mL (≈ 0.181 µM); in test [2], 0.006 µg/mL (≈ 0.0181 µM); in [3], 64 µg/mL (≈ 193 µM); in test [4], 2 µg/mL (≈ 6.04 µM); in test [5] it was 0.003 µg/mL (≈ 0.00905 µM); in test [6] it was 0.5 µg/mL (≈ 1.51 µM). Further, the MIC in test [7] worked out at 0.5 µg/mL (≈ 1.51 µM).
On to `COC(C(N)=O)C(NC(=O)c1ccc(NC(=O)c2ccc([N+](=O)[O-])cc2)cc1)C(=O)Nc1ccc(C(=O)Nc2ccc(C(=O)Nc3ccc(C(=O)O)cc3OC(C)C)c(O)c2OC(C)C)cc1` (stereo not shown) [Coralmycin A], for which the MIC in test [8] (KTCT3958, Staphylococcus epidermidis KTCT 3958, MHB, 20 hours, read-out: MIC) was 0.125 µg/mL (≈ 0.136 µM); in [1], 8 µg/mL (≈ 8.7 µM); in test [2], 8 µg/mL (≈ 8.7 µM); in test [10], 0.25 µg/mL (≈ 0.272 µM); in test [11], 1 µg/mL (≈ 1.09 µM); in test [12] (KTCT2357, Acinetobacter calcoaceticus KTCT 2357, MHB, 20 hours, read-out: MIC) it was 0.25 µg/mL (≈ 0.272 µM). The MIC in [13] is 1 µg/mL (≈ 1.09 µM); in test [15], 8 to 32 µg/mL (≈ 8.7 to 34.8 µM); in test [16] it was 0.25 µg/mL (≈ 0.272 µM); in test [17], 0.063 µg/mL (≈ 0.0685 µM); in test [18], 0.063 µg/mL (≈ 0.0685 µM); in test [19], 0.063 µg/mL (≈ 0.0685 µM). The MIC in [20] is 0.06 to 1 µg/mL (≈ 0.0652 to 1.09 µM); in test [3], 1 µg/mL (≈ 1.09 µM); in test [21], 0.1 to 1 µg/mL (≈ 0.109 to 1.09 µM); in test [22], 1 µg/mL (≈ 1.09 µM); in test [23] (KTCT2742, Pseudomonas aeruginosa KTCT 2742, MHB, 20 hours, read-out: MIC), 32 µg/mL (≈ 34.8 µM); in test [24] (KTCT3511, Enterococcus faecalis KTCT 3511, MHB, 20 hours, read-out: MIC), 0.125 µg/mL (≈ 0.136 µM). In addition, the MIC was 0.125 µg/mL (≈ 0.136 µM) in [4]; 8 µg/mL (≈ 8.7 µM) in test [25]; 0.5 µg/mL (≈ 0.544 µM) in test [5]; 2 µg/mL (≈ 2.17 µM) in [6]; 0.125 µg/mL (≈ 0.136 µM) in test [26]; 0.5 to 1 µg/mL (≈ 0.544 to 1.09 µM) in [27]. The MIC worked out at 0.125 µg/mL (≈ 0.136 µM) in test [28] (KTCT1661, Bacillus subtilis KTCT 1661, MHB, 20 hours, read-out: MIC) and 0.125 µg/mL (≈ 0.136 µM) in [7]. Besides, in [9], the “antimicrobial activity against VISA” value is recorded as “confirmed”. Further, the “antimicrobial activity against VRE” value in test [14] was “confirmed”.
`COC(C(N)=O)C(NC(=O)c1ccc(NC(=O)c2ccc([N+](=O)[O-])cc2)cc1)C(=O)Nc1ccc(C(=O)Nc2ccc(C(=O)Nc3ccc(C(=O)O)c(O)c3OC(C)C)c(O)c2OC(C)C)cc1` (stereo not shown) [Coralmycin B]: the MIC in test [1] came out at 4 µg/mL (≈ 4.27 µM); in [2] it was 2 µg/mL (≈ 2.14 µM); in test [16], 0.125 µg/mL (≈ 0.134 µM); in test [19], 0.015 µg/mL (≈ 0.016 µM); in test [3], 0.125 µg/mL (≈ 0.134 µM); in [4], 0.015 µg/mL (≈ 0.016 µM). Moreover, the values for the MIC in test [5], in [6] and in test [7] were 0.125 µg/mL (≈ 0.134 µM), 0.25 µg/mL (≈ 0.267 µM) and 0.03 µg/mL (≈ 0.0321 µM), respectively. Further, the “higher antimicrobial activity compared to ciprofloxacin” value is on record as “at least 426 fold” in test [3] (in Escherichia coli), “at least 133 fold” in test [4] (in MRSA) and “at least 16 fold” in test [7] (in Enterococcus faecalis).
As for `Oc1cc(Cl)ccc1Oc1ccc(Cl)cc1Cl` [Triclosan, reference compound], the MIC was 0.25 µg/mL (≈ 0.863 µM) in [8] (Staphylococcus epidermidis, KTCT3958, 20 h); over 64 µg/mL in [1]; over 0.5 µg/mL in test [12] (Acinetobacter calcoaceticus, KTCT2357, 20 h); over 64 µg/mL in [23] (Pseudomonas aeruginosa, KTCT2742, 20 h); over 64 µg/mL in test [24] (Enterococcus faecalis, KTCT3511, 20 h); 64 µg/mL (≈ 221 µM) in test [6]. For the same compound, the MIC in test [28] (Bacillus subtilis, KTCT1661, 20 h) was 2 µg/mL (≈ 6.91 µM); in test [7], over 64 µg/mL.
